Test results reported in patent publication US9556165B2 (priority 2012, dated 2017).
In brackets after ≈: the same amount, converted by molar mass. Like-named read-outs stand apart in the source and are kept apart here.

Columns and labels:
Assay type in all cases: cell-based
[1] = system: P. aeruginosa 2297 (AmpC wt); test: MIC determination, broth microdilution (CLSI); details: Pseudomonas aeruginosa, strain 7
[2] = system: P. aeruginosa 2297-con (AmpC derepressed); test: MIC determination, broth microdilution (CLSI); details: Pseudomonas aeruginosa, read-out: strain 8 MIC, strain 8
H. influenzae ATCC 49247 = test: MIC determination, broth microdilution (CLSI); details: Haemophilus influenzae, ATCC49247, strain 12; broth microdilution; read-out: MIC strain 12 (H. influenzae ATCC 49247)
C. freundii K21/3034 = test: MIC determination, broth microdilution (CLSI); details: Citrobacter freundii, K21/3034, strain 4
E. coli J62-TEM-3 = test: MIC determination, broth microdilution (CLSI); details: Escherichia coli, J62TEM3, read-out: MIC strain 18 (E. coli J62-TEM-3), strain 18; broth microdilution
E. coli ATCC25922 = test: MIC determination, broth microdilution (CLSI); details: Escherichia coli, ATCC25922, strain 1
K. pneumoniae 60 = test: MIC determination, broth microdilution (CLSI); details: Klebsiella pneumoniae, 60, strain 2
Bacteria = test: MIC determination in combination with β-lactamase inhibitors (constant 4 μg/mL)
M. morganii 126/3048 = test: MIC determination, broth microdilution (CLSI); details: Morganella morganii, 126/3048, strain 5
E. cloacae 34654 = test: MIC determination, broth microdilution (CLSI); details: Enterobacter cloacae, 34654, strain 3
S. aureus 133 = test: MIC determination, broth microdilution (CLSI)
S. pneumoniae 113 = test: MIC determination, broth microdilution (CLSI); details: Streptococcus pneumoniae, 113, strain 13; broth microdilution; read-out: MIC strain 13 (S. pneumoniae 113)
E. coli J62 = test: MIC determination, broth microdilution (CLSI); details: Escherichia coli, J62, strain 17; broth microdilution; read-out: MIC strain 17 (E. coli J62)
P. aeruginosa PAO1 = test: MIC determination, broth microdilution (CLSI); details: Pseudomonas aeruginosa, PAO1, strain 6
A. baumannii ATCC15308 = test: MIC determination, broth microdilution (CLSI); details: Acinetobacter baumannii, ATCC15308, strain 9
B. fragilis 6688 = test: MIC determination, broth microdilution (CLSI); details: Bacteroides fragilis, 6688, strain 15; broth microdilution; read-out: MIC strain 15 (B. fragilis 6688)
S. maltophilia ICB7569 = test: MIC determination, broth microdilution (CLSI); details: Stenotrophomonas maltophilia, ICB7569, strain 10
[3] = Staphylococcus aureus, 133, strain 11, read-out: strain 11 MIC
[4] = Staphylococcus aureus, 133, strain 14, broth microdilution, read-out: MIC strain 14 (S. aureus 133)

Compound	MIC [1]	MIC [2]	MIC (H. influenzae ATCC 49247)	MIC (C. freundii K21/3034)	MIC (E. coli J62-TEM-3)	MIC (E. coli ATCC25922)	MIC (K. pneumoniae 60)	MIC strain 19 (E. coli J62-TEM-3 + 4 μg/mL clavulanic acid) (Bacteria)	MIC strain 20 (E. coli J62-TEM-3 + 4 μg/mL sulbactam) (Bacteria)	MIC strain 21 (E. coli J62-TEM-3 + 4 μg/mL tazobactam) (Bacteria)	MIC (M. morganii 126/3048)	MIC (E. cloacae 34654)	MIC (S. aureus 133; [3])	MIC (S. aureus 133; [4])	MIC (S. pneumoniae 113)	MIC (E. coli J62)	MIC (P. aeruginosa PAO1)	MIC (A. baumannii ATCC15308)	MIC (B. fragilis 6688)	MIC (S. maltophilia ICB7569)
C[C@H]1[C@H](NC(=O)/C(=N\OCCOc2ccc(C(=N)N)cc2CO)c2csc(N)n2)C(=O)N1S(=O)(=O)O [Example 59, (2S,3S)-3-{[(2Z)-2-(2-Amino-1,3-thiazol-4-yl)-2-({2-[4-carbamimidoyl-2-(hydroxymethyl)phenoxy]ethoxy}imino)acetyl]amino}-2-methyl-4-oxoazetidine-1-sulfonic acid]	16 µg/mL (≈ 29.5 µM)	32 µg/mL (≈ 59.1 µM)	1 µg/mL (≈ 1.85 µM)	0.5 µg/mL (≈ 0.923 µM)	32 µg/mL (≈ 59.1 µM)	1 µg/mL (≈ 1.85 µM)	1 µg/mL (≈ 1.85 µM)	2 µg/mL	2 µg/mL	2 µg/mL	1 µg/mL (≈ 1.85 µM)	1 µg/mL (≈ 1.85 µM)	0.25 µg/mL (≈ 0.462 µM)	32 µg/mL (≈ 59.1 µM)	0.5 µg/mL (≈ 0.923 µM)	2 µg/mL (≈ 3.69 µM)	16 µg/mL (≈ 29.5 µM)	1 µg/mL (≈ 1.85 µM)	16 µg/mL (≈ 29.5 µM)	
C[C@H]1[C@H](NC(=O)/C(=N\OCCOc2ccc(C(=N)N)cc2COC=O)c2csc(N)n2)C(=O)N1S(=O)(=O)O [Example 60, (2S,3S)-3-({(2Z)-2-(2-Amino-1,3-thiazol-4-yl)-2-[(2-{4-carbamimidoyl-2-[(formyloxy)-methyl]phenoxy}ethoxy)imino]acetyl}amino)-2-methyl-4-oxoazetidine-1-sulfonic acid]	16 µg/mL (≈ 28.1 µM)	32 µg/mL (≈ 56.2 µM)	1 µg/mL (≈ 1.76 µM)	1 µg/mL (≈ 1.76 µM)	32 µg/mL (≈ 56.2 µM)	1 µg/mL (≈ 1.76 µM)	1 µg/mL (≈ 1.76 µM)	2 µg/mL	2 µg/mL	2 µg/mL	0.5 µg/mL (≈ 0.878 µM)	2 µg/mL (≈ 3.51 µM)	0.25 µg/mL (≈ 0.439 µM)	16 µg/mL (≈ 28.1 µM)	1 µg/mL (≈ 1.76 µM)	2 µg/mL (≈ 3.51 µM)	16 µg/mL (≈ 28.1 µM)	4 µg/mL (≈ 7.02 µM)	16 µg/mL (≈ 28.1 µM)	
C[C@H]1[C@H](NC(=O)/C(=N\OCCOc2ccc(CC(=N)N)cc2)c2csc(N)n2)C(=O)N1S(=O)(=O)O [Example 62, (2S,3S)-3-{[(2Z)-2-({2-[4-(2-Amino-2-iminoethyl)phenoxy]ethoxy}imino)-2-(2-amino-1,3-thiazol-4-yl)acetyl]amino}-2-methyl-4-oxoazetidine-1-sulfonic acid]	8 µg/mL (≈ 15.2 µM)	32 µg/mL (≈ 60.9 µM)	0.25 µg/mL (≈ 0.476 µM)	0.5 µg/mL (≈ 0.951 µM)	16 µg/mL (≈ 30.4 µM)	1 µg/mL (≈ 1.9 µM)	0.5 µg/mL (≈ 0.951 µM)	1 µg/mL	1 µg/mL	1 µg/mL	0.125 µg/mL (≈ 0.238 µM)	1 µg/mL (≈ 1.9 µM)	0.125 µg/mL (≈ 0.238 µM)	8 µg/mL (≈ 15.2 µM)	1 µg/mL (≈ 1.9 µM)	1 µg/mL (≈ 1.9 µM)	4 µg/mL (≈ 7.61 µM)	2 µg/mL (≈ 3.81 µM)	16 µg/mL (≈ 30.4 µM)	
C[C@H]1[C@H](NC(=O)/C(=N\OCCOc2ccc(C(=N)NNC=O)cc2)c2csc(N)n2)C(=O)N1S(=O)(=O)O [Example 63, (2S,3S)-3-({(2Z)-2-(2-Amino-1,3-thiazol-4-yl)-2-[(2-{4-[(2-formylhydrazinyl)(imino)methyl]phenoxy}ethoxy)imino]acetyl}amino)-2-methyl-4-oxoazetidine-1-sulfonic acid]	8 µg/mL (≈ 14.4 µM)		0.125 µg/mL (≈ 0.225 µM)	0.25 µg/mL (≈ 0.451 µM)	8 µg/mL (≈ 14.4 µM)	0.5 µg/mL (≈ 0.902 µM)	0.25 µg/mL (≈ 0.451 µM)	0.25 µg/mL	0.5 µg/mL	0.5 µg/mL	0.5 µg/mL (≈ 0.902 µM)	0.5 µg/mL (≈ 0.902 µM)	0.5 µg/mL (≈ 0.902 µM)	16 µg/mL (≈ 28.9 µM)	0.5 µg/mL (≈ 0.902 µM)	0.5 µg/mL (≈ 0.902 µM)	8 µg/mL (≈ 14.4 µM)	16 µg/mL (≈ 28.9 µM)	16 µg/mL (≈ 28.9 µM)	16 µg/mL (≈ 28.9 µM)
C[C@H]1[C@H](NC(=O)/C(=N\OCCOc2ccc(C(=N)NN)cc2)c2csc(N)n2)C(=O)N1S(=O)(=O)O [Example 64, (2S,3S)-3-({(2Z)-2-(2-Amino-1,3-thiazol-4-yl)-2-[(2-{4-[hydrazinyl(imino)methyl]phenoxy}ethoxy)imino]acetyl}amino)-2-methyl-4-oxoazetidine-1-sulfonic acid]	16 µg/mL (≈ 30.4 µM)		8 µg/mL (≈ 15.2 µM)	0.5 µg/mL (≈ 0.95 µM)	32 µg/mL (≈ 60.8 µM)	0.5 µg/mL (≈ 0.95 µM)	0.25 µg/mL (≈ 0.475 µM)	1 µg/mL	1 µg/mL	2 µg/mL	0.5 µg/mL (≈ 0.95 µM)	0.5 µg/mL (≈ 0.95 µM)	16 µg/mL (≈ 30.4 µM)	8 µg/mL (≈ 15.2 µM)	32 µg/mL (≈ 60.8 µM)	1 µg/mL (≈ 1.9 µM)	8 µg/mL (≈ 15.2 µM)	8 µg/mL (≈ 15.2 µM)		32 µg/mL (≈ 60.8 µM)
CNC(=N)c1ccc(OCCO/N=C(\C(=O)N[C@@H]2C(=O)N(S(=O)(=O)O)[C@H]2C)c2csc(N)n2)cc1 [Example 68, (2S,3S)-3-{[(2Z)-2-(2-Amino-1,3-thiazol-4-yl)-2-({2-[4-(N-methylcarbamimidoyl)-phenoxy]ethoxy}imino)acetyl]amino}-2-methyl-4-oxoazetidine-1-sulfonic acid]	8 µg/mL (≈ 15.2 µM)	32 µg/mL (≈ 60.9 µM)	0.125 µg/mL (≈ 0.238 µM)	0.125 µg/mL (≈ 0.238 µM)	16 µg/mL (≈ 30.4 µM)	0.125 µg/mL (≈ 0.238 µM)	0.25 µg/mL (≈ 0.476 µM)	0.125 µg/mL	0.25 µg/mL	0.25 µg/mL	0.125 µg/mL (≈ 0.238 µM)	0.125 µg/mL (≈ 0.238 µM)	≤ 0.063 µg/mL	2 µg/mL (≈ 3.81 µM)	0.5 µg/mL (≈ 0.951 µM)	0.25 µg/mL (≈ 0.476 µM)	2 µg/mL (≈ 3.81 µM)	2 µg/mL (≈ 3.81 µM)	8 µg/mL (≈ 15.2 µM)	
